From patent US10251892B2, “Bicyclic heterocycles as FGFR4 inhibitors” (Incyte Corporation, priority 2015, dated 2019) come the findings set out here.

Each structure is given as a SMILES string.

Sequence of FGFR3 enzyme (P22607 23-806): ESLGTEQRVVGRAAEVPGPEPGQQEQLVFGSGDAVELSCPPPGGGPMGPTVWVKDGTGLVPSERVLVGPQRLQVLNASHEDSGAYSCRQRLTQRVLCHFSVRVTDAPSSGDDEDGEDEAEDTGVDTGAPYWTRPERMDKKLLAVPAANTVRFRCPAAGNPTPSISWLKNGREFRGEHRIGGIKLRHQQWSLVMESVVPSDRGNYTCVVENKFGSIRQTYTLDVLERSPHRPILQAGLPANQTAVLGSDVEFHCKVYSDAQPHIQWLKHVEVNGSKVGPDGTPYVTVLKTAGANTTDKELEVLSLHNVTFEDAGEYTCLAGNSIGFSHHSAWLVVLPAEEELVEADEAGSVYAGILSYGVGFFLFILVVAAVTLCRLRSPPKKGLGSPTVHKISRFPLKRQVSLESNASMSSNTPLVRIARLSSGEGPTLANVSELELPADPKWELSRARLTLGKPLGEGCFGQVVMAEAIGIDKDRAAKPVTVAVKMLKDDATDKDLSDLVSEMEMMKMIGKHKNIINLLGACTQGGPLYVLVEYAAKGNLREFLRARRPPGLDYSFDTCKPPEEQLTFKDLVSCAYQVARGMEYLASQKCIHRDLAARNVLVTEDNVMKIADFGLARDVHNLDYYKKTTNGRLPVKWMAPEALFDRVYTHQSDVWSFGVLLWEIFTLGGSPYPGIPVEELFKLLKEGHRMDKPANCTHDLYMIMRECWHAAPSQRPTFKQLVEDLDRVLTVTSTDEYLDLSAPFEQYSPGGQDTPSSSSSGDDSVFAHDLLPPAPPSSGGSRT

For the experiment, the target named is FGFR3 enzyme (Homo sapiens (Human), UniProt P22607). Nature of the experiment: FGFR Enzymatic Assay (peptide phosphorylation, FRET), FGFR3. Type of experiment: biochemical. The settings on record: IC50 ratio showing FGFR3 selectivity; pre-incubated for 4 hours. As for the experimental part:
The inhibitor potency of the exemplified compounds was measured in an enzyme assay that measures peptide phosphorylation using FRET measurements to detect product formation. Inhibitors were serially diluted in DMSO and a volume of 0.5 μL was transferred to the wells of a 384-well plate.
GraphPad prism3 was used to analyze the data.
`COc1cc(OC)c(F)c(N2Cc3cnc(-c4ccccc4)cc3C3(CC3)C2=O)c1F` [Example 17, 2′-(2,6-difluoro-3,5-dimethoxyphenyl)-6′-phenyl-1′H-spiro[cyclopropane-1,4′-[2,7]naphthyridin]-3′(2′H)-one]: the FGFR1/FGFR3 was over 10. For the compound `CNC(=O)c1ccc(-c2cc3c(cn2)CN(c2c(F)c(OC)cc(OC)c2F)C(=O)C32CC2)cn1` [Example 18, 5-(2′-(2,6-difluoro-3,5-dimethoxyphenyl)-3′-oxo-2′,3′-dihydro-1′H-spiro[cyclopropane-1,4′-[2,7]naphthyridine]-6′-yl)-N-methylpicolinamide], the FGFR1/FGFR3 was over 5. As for `CNC(=O)c1ccc(-c2cc3c(cn2)CN(c2c(F)c(OC)cc(OC)c2F)C(=O)C32CC2)cc1` [Example 19, 4-(2′-(2,6-difluoro-3,5-dimethoxyphenyl)-3′-oxo-2′,3′-dihydro-1′H-spiro[cyclopropane-1,4′-[2,7]naphthyridine]-6′-yl)-N-methylbenzamide], the FGFR1/FGFR3 is on record as over 5.

Regarding `COc1cc(OC)c(F)c(N2Cc3cnc(-c4ccc(C#N)nc4)cc3C3(CC3)C2=O)c1F` [Example 20, 5-(2′-(2,6-difluoro-3,5-dimethoxyphenyl)-3′-oxo-2′,3′-dihydro-1′H-spiro[cyclopropane-1,4′-[2,7]naphthyridine]-6′-yl)picolinonitrile], the FGFR1/FGFR3 was over 5. Consider `COc1cc(OC)c(F)c(N2Cc3cnc(-c4cn(C)nc4C)cc3C3(CC3)C2=O)c1F` [Example 21, 2′-(2,6-difluoro-3,5-dimethoxyphenyl)-6′-(1,3-dimethyl-1H-pyrazol-4-yl)-1′,2′-dihydro-3′H-spiro[cyclopropane-1,4′-[2,7]naphthyridin]-3′-one], for which the FGFR1/FGFR3 is given as over 5. Regarding `CCN1C(=O)N(c2c(F)c(OC)cc(OC)c2F)Cc2cnc(-c3ccccc3)cc21` [Example 22, 3-(2,6-difluoro-3,5-dimethoxyphenyl)-1-ethyl-7-phenyl-3,4-dihydropyrido[4,3-d]pyrimidin-2(1H)-one], the FGFR1/FGFR3 is over 5. On the same count and under the same terms, next, `CCN1C(=O)N(c2c(F)c(OC)cc(OC)c2F)Cc2cnc(-c3cccnc3)cc21` [Example 23, 3-(2,6-difluoro-3,5-dimethoxyphenyl)-1-ethyl-7-(pyridin-3-yl)-3,4-dihydropyrido[4,3-d]pyrimidin-2(1H)-one]: over 5. Consider `CCN1C(=O)N(c2c(F)c(OC)cc(OC)c2F)Cc2cnc(-c3ccc(CN4CC[C@H](C#N)C4)cc3)cc21` [Example 25, (S)-1-(4-(3-(2,6-difluoro-3,5-dimethoxyphenyl)-1-ethyl-2-oxo-1,2,3,4-tetrahydropyrido[4,3-d]pyrimidin-7-yl)benzyl)pyrrolidine-3-carbonitrile], for which the FGFR1/FGFR3 is on record as over 5 and the FGFR4/FGFR3 is over 5. For the compound `CCN1C(=O)N(c2c(F)c(OC)cc(OC)c2F)Cc2cnc(-c3ccc(C(C)(C)C#N)nc3)cc21` [Example 26, 2-(5-(3-(2,6-difluoro-3,5-dimethoxyphenyl)-1-ethyl-2-oxo-1,2,3,4-tetrahydropyrido[4,3-d]pyrimidin-7-yl)pyridin-2-yl)-2-methylpropanenitrile], the FGFR1/FGFR3 was over 5 and the FGFR4/FGFR3 is reported as over 5. As to `CCN1C(=O)N(c2c(F)c(OC)cc(OC)c2F)Cc2cnc(-c3ccc(C4(C#N)CCC4)nc3)cc21` [Example 27, 1-(5-(3-(2,6-difluoro-3,5-dimethoxyphenyl)-1-ethyl-2-oxo-1,2,3,4-tetrahydropyrido[4,3-d]pyrimidin-7-yl)pyridin-2-yl)cyclobutanecarbonitrile], the FGFR1/FGFR3 was over 10 and the FGFR4/FGFR3 is listed as over 10.

With `COc1cc(OC)c(F)c(N2Cc3cnc(-c4cn(C)nc4C)cc3N(CC3CC3)C2=O)c1F` [Example 29, 1-(cyclopropylmethyl)-3-(2,6-difluoro-3,5-dimethoxyphenyl)-7-(1,3-dimethyl-1H-pyrazol-4-yl)-3,4-dihydropyrido[4,3-d]pyrimidin-2(1H)-one], the FGFR1/FGFR3 is reported as over 1 and the FGFR4/FGFR3 was over 5. For `CCCN1C(=O)N(c2c(F)c(OC)cc(OC)c2F)Cc2cnc(-c3cn(C)nc3C)cc21` [Example 30, 3-(2,6-difluoro-3,5-dimethoxyphenyl)-7-(1,3-dimethyl-1H-pyrazol-4-yl)-1-propyl-3,4-dihydropyrido[4,3-d]pyrimidin-2(1H)-one] the same measures were over 1 and over 5.

In the case of `COc1cc(OC)c(F)c(N2Cc3cnc(-c4cn(C)nc4C)cc3N(Cc3cc(C)on3)C2=O)c1F` [Example 31, 3-(2,6-difluoro-3,5-dimethoxyphenyl)-7-(1,3-dimethyl-1H-pyrazol-4-yl)-1-((5-methylisoxazol-3-yl)methyl)-3,4-dihydropyrido[4,3-d]pyrimidin-2(1H)-one], the FGFR1/FGFR3 is over 5 and the FGFR4/FGFR3 is on record as over 10. For `COc1cc(OC)c(F)c(N2Cc3cnc(-c4cn(C)nc4C)cc3N(C3CCCC3)C2=O)c1F` [Example 32, 1-cyclopentyl-3-(2,6-difluoro-3,5-dimethoxyphenyl)-7-(1,3-dimethyl-1H-pyrazol-4-yl)-3,4-dihydropyrido[4,3-d]pyrimidin-2(1H)-one] the same measures were over 1 and over 5. The corresponding values for `COc1cc(OC)c(F)c(N2Cc3cnc(-c4cn(C)nc4C)cc3N(C3CCOC3)C2=O)c1F` (stereo not shown) [Example 33, 3-(2,6-difluoro-3,5-dimethoxyphenyl)-7-(1,3-dimethyl-1H-pyrazol-4-yl)-1-(tetrahydrofuran-3-yl)-3,4-dihydropyrido[4,3-d]pyrimidin-2(1H)-one] are over 5 and over 5.

Regarding `COc1cc(OC)c(F)c(N2Cc3cnc(-c4cn(C)nc4C)cc3N(Cc3ccc(F)cc3)C2=O)c1F` [Example 34, 3-(2,6-difluoro-3,5-dimethoxyphenyl)-7-(1,3-dimethyl-1H-pyrazol-4-yl)-1-(4-fluorobenzyl)-3,4-dihydropyrido[4,3-d]pyrimidin-2(1H)-one], the FGFR1/FGFR3 was over 5 and the FGFR4/FGFR3 is listed as over 10. Consider `COc1cc(OC)c(F)c(N2Cc3cnc(-c4cn(C)nc4C)cc3N(Cc3cc(C)no3)C2=O)c1F` [Example 35, 3-(2,6-difluoro-3,5-dimethoxyphenyl)-7-(1,3-dimethyl-1H-pyrazol-4-yl)-1-((3-methylisoxazol-5-yl)methyl)-3,4-dihydropyrido[4,3-d]pyrimidin-2(1H)-one], for which the FGFR1/FGFR3 was over 5 and the FGFR4/FGFR3 is recorded as over 10. For `COc1cc(OC)c(F)c(N2Cc3cnc(-c4cn(C)nc4C)cc3N(CC3CCOCC3)C2=O)c1F` [Example 37, 3-(2,6-difluoro-3,5-dimethoxyphenyl)-7-(1,3-dimethyl-1H-pyrazol-4-yl)-1-((tetrahydro-2H-pyran-4-yl)methyl)-3,4-dihydropyrido[4,3-d]pyrimidin-2(1H)-one] the same measures were over 1 and over 10.

Consider `COc1cc(OC)c(F)c(N2Cc3cnc(-c4cn(C)nc4C)cc3N(Cc3ccc4c(c3)OCCO4)C2=O)c1F` [Example 38, 3-(2,6-difluoro-3,5-dimethoxyphenyl)-1-((2,3-dihydrobenzo[b][1,4]dioxin-6-yl)methyl)-7-(1,3-dimethyl-1H-pyrazol-4-yl)-3,4-dihydropyrido[4,3-d]pyrimidin-2(1H)-one], for which the FGFR1/FGFR3 is recorded as over 5 and the FGFR4/FGFR3 was over 5.

As for `CCn1cc(CN2C(=O)N(c3c(F)c(OC)cc(OC)c3F)Cc3cnc(-c4cn(C)nc4C)cc32)cn1` [Example 39, 3-(2,6-difluoro-3,5-dimethoxyphenyl)-7-(1,3-dimethyl-1H-pyrazol-4-yl)-1-((1-ethyl-1H-pyrazol-4-yl)methyl)-3,4-dihydropyrido[4,3-d]pyrimidin-2(1H)-one], the FGFR1/FGFR3 was over 10 and the FGFR4/FGFR3 is over 10.

Regarding `COc1cc(OC)c(F)c(N2Cc3cnc(-c4cn(C)nc4C)cc3N(c3ccc(F)cc3)C2=O)c1F` [Example 40, 3-(2,6-difluoro-3,5-dimethoxyphenyl)-7-(1,3-dimethyl-1H-pyrazol-4-yl)-1-(4-fluorophenyl)-3,4-dihydropyrido[4,3-d]pyrimidin-2(1H)-one], the FGFR1/FGFR3 is on record as over 10 and the FGFR4/FGFR3 is over 10.

As to `COc1cc(OC)c(F)c(N2Cc3cnc(-c4cn(C)nc4C)cc3N(c3ccc4ncsc4c3)C2=O)c1F` [Example 41, 1-(1,3-benzothiazol-6-yl)-3-(2,6-difluoro-3,5-dimethoxyphenyl)-7-(1,3-dimethyl-1H-pyrazol-4-yl)-3,4-dihydropyrido[4,3-d]pyrimidin-2(1H)-one], the FGFR1/FGFR3 is given as over 1 and the FGFR4/FGFR3 is listed as over 5.

With `COc1cc(OC)c(F)c(N2Cc3cnc(-c4cn(C)nc4C)cc3N(C3CCN(C(C)=O)CC3)C2=O)c1F` [Example 43, 1-(1-acetylpiperidin-4-yl)-3-(2,6-difluoro-3,5-dimethoxyphenyl)-7-(1,3-dimethyl-1H-pyrazol-4-yl)-3,4-dihydropyrido[4,3-d]pyrimidin-2(1H)-one], the FGFR1/FGFR3 was over 10 and the FGFR4/FGFR3 is over 5. The corresponding values for `COc1cc(OC)c(F)c(N2Cc3cnc(-c4cn(C)nc4C)cc3N(c3ccc(C#N)cc3)C2=O)c1F` [Example 44, 4-(3-(2,6-difluoro-3,5-dimethoxyphenyl)-7-(1,3-dimethyl-1H-pyrazol-4-yl)-2-oxo-3,4-dihydropyrido[4,3-d]pyrimidin-1(2H)-yl)benzonitrile] are over 10 and over 10. The corresponding values for `COc1cc(OC)c(F)c(N2Cc3cnc(-c4cn(C)nc4C)cc3N(c3ccncn3)C2=O)c1F` [Example 45, 3-(2,6-difluoro-3,5-dimethoxyphenyl)-7-(1,3-dimethyl-1H-pyrazol-4-yl)-1-pyrimidin-4-yl-3,4-dihydropyrido[4,3-d]pyrimidin-2(1H)-one] are over 10 and over 10.
